Holding throughout (assay): NCI-60 cell line screen, 48 h
Experiment [1] concerns SW-620 colon.
The test system of experiment [2] is NCI-H226 lung.
In experiment [3] the test system is NCI-H522 lung.
Experiment [4] relates to M14 melanoma.
Experiment [5] has as its system HCT-116 colon.
For experiment [6], the system named is MALME-3M melanoma.
Experiment [7] concerns IGROV1 ovarian.
In experiment [8] the test system is PC-3 prostate.
The subject of experiment [9] is COLO 205 colon.
The test system of experiment [10] is MOLT-4 leukemia.

Several values for one entry are separate records, joined by “and”; a condition that tells them apart may be missing. Equal entries are not always repeated.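 A five-concentration, 48-hour dose response in 96-well plates underlies each endpoint, interpolated linearly between surrounding concentrations. At the GI50, growth is halved. TGI: concentration producing complete growth inhibition.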

For `Nc1ncnc2c1c(-c1cccc(OCc3ccccc3)c1)cn2C1CC(CN2CCC2)C1` (stereo unspecified), the GI50 in experiment [1] is 1.29 µM and 1.56 µM; in [2], 2.03 µM and 2.71 µM; in experiment [3], 2.18 µM and 7.48 µM; in [4], 1.59 µM and 1.65 µM; in experiment [5], 1.85 µM and 2.58 µM; in [6], 0.433 µM and 1.33 µM. Moreover, the GI50 is 3.32 µM and 4.84 µM in experiment [7]; 2.94 µM and 5.42 µM in experiment [8]; 0.262 µM and 0.245 µM in [9]; 2.82 µM and 2.56 µM in [10]. Further, the TGI in experiment [1] was 6.47 µM and > 10 µM; in [2], 16 µM and > 10 µM; in experiment [3], 5.92 µM and > 10 µM; in experiment [4] it was 3.28 µM and 3.55 µM; in experiment [5], 11.5 µM and > 10 µM; in experiment [6] it was 1.96 µM and 3.04 µM. In addition, the TGI in [7] is 12.2 µM and > 10 µM; in experiment [8], 13.9 µM and > 10 µM; in [9], 1.55 µM and 1.29 µM; in experiment [10] it was 8.59 µM and > 10 µM.

As to `COc1cc(Nc2ncc(F)c(Nc3ccc4c(n3)NC(=O)C(C)(C)O4)n2)cc(OC)c1OC`, the GI50 in [1] is more than 10 µM; in experiment [2], 0.4 µM and 0.393 µM; in experiment [3], 1.94 µM and 1.43 µM; in experiment [4] it was more than 100 µM; in experiment [5] it was more than 100 µM; in [6] it was more than 100 µM. Moreover, the GI50 in experiment [7] is 0.43 µM; in experiment [8] it was more than 10 µM; in experiment [9], 2.4 µM and 2.55 µM; in experiment [10], 3.38 µM and 6.7 µM. Besides, the TGI is more than 10 µM in [1]; more than 100 µM in experiment [2]; more than 100 µM in experiment [3]; more than 100 µM in experiment [4]; more than 100 µM in experiment [5]; more than 100 µM in [6]. Besides, the TGI is more than 10 µM in experiment [7], more than 10 µM in experiment [8], more than 100 µM in experiment [9] and more than 100 µM in experiment [10].

For `Clc1ccc(C2=Nn3c(nnc3-c3cc(Cl)cc(Cl)c3Cl)SC2)cc1`, the GI50 in experiment [1] is 17.4 µM; in experiment [2] it was 51.9 µM; in [3] it was 12.7 µM; in [4], 29 µM; in experiment [5], 22.1 µM; in [6], 10.5 µM. Further, the GI50 was 6.8 µM in experiment [7], 73.4 µM in experiment [8], 52.8 µM in experiment [9] and 38.8 µM in experiment [10]. In addition, the TGI in experiment [1] is more than 100 µM; in [2], more than 100 µM; in experiment [3], 46.2 µM; in [4], more than 100 µM; in experiment [5] it was more than 100 µM; in experiment [6] it was 29.2 µM. The TGI was 24.7 µM in experiment [7], more than 100 µM in [8], more than 100 µM in experiment [9] and more than 100 µM in experiment [10].

As for `COC1=CC23CCCN2CCc2cc4c(cc2C3C1O)OCO4` (stereo unspecified), the TGI in experiment [1], in experiment [2], in experiment [3], in experiment [4], in [5] and in experiment [6] was more than 100 µM in each case. For the same compound, the TGI is more than 100 µM in experiment [7], more than 100 µM in experiment [8], 64.2 µM in [9] and more than 100 µM in experiment [10].

`N#CC(C#N)N=Nc1ccc(Br)cc1`: the GI50 in experiment [1] is 3.01 µM; in [2] it was 4.63 µM; in experiment [3] it was 0.543 µM; in experiment [4] it was 3.33 µM; in [5], 2.44 µM; in experiment [6], 1.35 µM. The GI50 is 3.68 µM in [7], 2.42 µM in [8], 1.43 µM in experiment [9] and 2.72 µM in experiment [10]. Further, the TGI in experiment [1] was 15.8 µM; in experiment [2], 27 µM; in experiment [3] it was 3.41 µM; in experiment [4], 16.8 µM; in experiment [5], 9.44 µM; in experiment [6] it was 10.4 µM. The TGI was more than 73.6 µM in experiment [7], 17.7 µM in experiment [8], 3.25 µM in [9] and more than 66.2 µM in [10].

With `C[C@@H]1Cc2c([nH]c3ccccc23)[C@@H](c2c(F)cc(NC3CN(CCCF)C3)cc2F)N1CC(F)(F)CO`, the GI50 is 3.28 µM in experiment [1]; 7.71 µM in experiment [2]; 4.16 µM in [3]; 1.87 µM in experiment [4]; 1.94 µM in experiment [5]; 1.77 µM in experiment [6]. The GI50 in [7] is 2.77 µM; in experiment [8], 2.35 µM; in [9], 2.35 µM; in experiment [10] it was 3.91 µM. The TGI in experiment [1] turned out to be 13 µM; in experiment [2] it was 25.8 µM; in experiment [3], 16.7 µM; in experiment [4] it was 3.84 µM; in [5], 3.83 µM; in experiment [6], 3.72 µM. The TGI is 10.8 µM in experiment [7], 9.67 µM in experiment [8], 5.71 µM in experiment [9] and 20.6 µM in experiment [10].

On to `CN1CCN(c2ccc(Nc3nc(N)c(C(=O)c4ccc5c(c4)OCCO5)s3)cc2)CC1`, for which the GI50 in experiment [1] is 3.63 µM; in experiment [2], 2.71 µM; in experiment [3], 4.32 µM; in experiment [4], 3.99 µM; in [5], 2.27 µM; in experiment [6], 2.72 µM. Besides, the GI50 in experiment [7] is 2.27 µM; in [8] it was 1.77 µM; in [9], 2.27 µM; in experiment [10], 1.89 µM. Also, the TGI in experiment [1] was more than 17.7 µM; in experiment [2], 11.8 µM; in [3], 9.84 µM; in [4] it was more than 18.1 µM; in [5], more than 15.5 µM; in [6], 8.34 µM. For the same compound, the TGI in experiment [7] was determined as 9.27 µM; in experiment [8], 8.47 µM; in experiment [9] it was 7.35 µM; in [10], 10 µM.

In the case of `COc1ccc(C[C@@H]2NC[C@@H](O)[C@@H]2OC(C)=O)cc1`, the GI50 in [1] was 4.16 µM; in experiment [2], 5.27 µM; in [3], 2.06 µM; in experiment [4], 11.8 µM; in [5] it was 2.92 µM; in [6], 3.97 µM. The GI50 in experiment [7] is 0.367 µM; in experiment [9], 2.04 µM; in experiment [10], 2.81 µM. Also, the TGI in experiment [7] amounted to 8.14 µM; in [8], 0.255 µM.

The values are drawn from PubChem BioAssay (NCI).
